Legend:
OTUB1 [1] = target: T1, OTUB1 (Homo sapiens, UniProt Q96FW1); assay: In vitro reconstituted OTUB1 deubiquitination activity assay (monoubiquitin release from di-ubiquitin); format: biochemical; parameters: dose or concentration left out as unconfirmed; details: in the presence of UBE2D1; OTUB1 pre-incubated with Compound 100 for 1 hr; Western blotting
Protocol: These studies were performed in the presence of OTUB1-stimulating Ubiquitin-conjugating enzyme E2 D1 (UBE2D1), an E2 ubiquitin ligase that engages in a complex with OTUB1 to stimulate OTUB1 activity.
Previously described methods were used to assess DUB Recruiters effects on OTUB1 activity. Recombinant OTUB1 (500 nM) was pre-incubated with DMSO or Compound 100 […] for 1 hr. To initiate assay pre-treated OTUB1 enzyme was mixed 1:1 with di-Ub reaction mix for final concentrations of 250 nM OTUB1, 1.5 μM di-Ub, 12.5 μM UBE2D1 and 5 mM DTT. The appearance of mono-Ub was monitored by Western blotting over time by removing a portion of the reaction mix and adding Laemmli's buffer to terminate the reaction. Blot shown is a representative gel from n=3 biologically independent experiments/group.
Target sequence in this assay (Q96FW1 whole entry): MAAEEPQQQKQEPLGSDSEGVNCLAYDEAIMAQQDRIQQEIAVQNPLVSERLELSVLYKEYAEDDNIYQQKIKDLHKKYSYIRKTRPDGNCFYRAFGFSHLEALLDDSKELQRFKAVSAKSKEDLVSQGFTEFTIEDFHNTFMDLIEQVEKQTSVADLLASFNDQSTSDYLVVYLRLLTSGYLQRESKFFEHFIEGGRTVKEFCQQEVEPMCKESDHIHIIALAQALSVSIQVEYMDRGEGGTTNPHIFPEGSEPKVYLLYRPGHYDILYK
Target sequence in this assay (P51668 whole entry partner): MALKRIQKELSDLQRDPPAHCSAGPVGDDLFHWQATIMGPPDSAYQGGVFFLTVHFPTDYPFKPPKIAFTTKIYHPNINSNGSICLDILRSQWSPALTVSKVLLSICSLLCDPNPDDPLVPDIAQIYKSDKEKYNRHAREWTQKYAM

OTUB1 [2] = target: T1, OTUB1; assay: Gel-based ABPP: competition against IA-rhodamine labeling of OTUB1; format: binding; details: pre-incubated with OTUB1 30 min at 37° C.; IA-rhodamine 500 nM, 30 min room temperature; in-gel fluorescence; n=3
Protocol: Vehicle (DMSO) or an exemplary DUB Recruiter (Compound 100) were pre-incubated with OTUB1 for 30 min at 37° C. prior to IA-rhodamine labeling (500 nM, 30 min room temperature). OTUB1 was then separated by SDS/PAGE and in-gel fluorescence was assessed. Protein loading is illustrated by silver staining. The gel shown is representative gel of n=3 biologically independent samples/group.
Recombinant OTUB1 ([…]) was pre-treated with either DMSO vehicle or covalent ligand or bifunctional compounds at 37° C. for 30 min in 25 μL of PBS, and subsequently treated with of IA-Rhodamine (Setareh Biotech) at room temperature for 1 h. The reaction was stopped by addition of 4× reducing Laemmli SDS sample loading buffer (Alfa Aesar). After boiling at 95° C. for 5 min, the samples were separated on precast 4-20% Criterion TGX gels (Bio-Rad). Probe-labeled proteins were analyzed by in-gel fluorescence using a ChemiDoc MP (Bio-Rad).
A covalent ligand screen of cysteine-reactive libraries competed against IA-rhodamine labeling of a recombinant exemplary deubiquitinase OTUB1 was carried out to identify small molecule binders to OTUB1 by gel-based activity-based protein profiling (ABPP). […] OTUB1 was then separated by SDS/PAGE and in-gel fluorescence was assessed and quantified.
Target sequence in this assay (Q96FW1 whole entry): as the sequence (Q96FW1 whole entry) above

OTUB1 [3] = target: T1, OTUB1; assay: LC-MS/MS analysis of tryptic peptides from OTUB1 covalently bound to DUB Recruiter; format: binding; details: tryptic peptides from OTUB1 covalently bound to compound
Target sequence in this assay (Q96FW1 whole entry): as above

CFTR-OTUB1 complex = CFTR-OTUB1 complex (Homo sapiens, UniProt P13569+Q96FW1, DEL508-508); assay: Native mass spectrometry analysis of ternary complex formation; details: native MS; recombinant OTUB1 and DF508-harboring CFTR nucleotide-binding domain; 50 μM compound final
Protocol: FIGS. 15A-15D are images that confirm formation of a ternary complex between CFTR, an exemplary bifunctional compound (Compound 201), and OTUB1 in vitro using recombinant protein and native mass spectrometry (MS)-based approaches. FIGS. 15A-15C depict native mass spectra of CFTR-OTUB1 complex formation in the presence of DMSO (FIG. 15A), the DUB Recruiter Compound 100 alone (FIG. 15B), or the bifunctional compound Compound 201 (FIG. 15C).
Native mass spectrometry experiments were performed on a Thermo QE UHMR equipped with a nano-electrospray ionization source (Advion TriVersa NanoMate). Recombinant OTUB1 was first buffer exchanged into 150 mM ammonium acetate, 100 μM MgCl2, and 100 μM ATP at pH 6.7. 4 μM OTUB1 was then pre-incubated at room temperature for 24 hours with either DMSO, DUB Recruiter Compound 100 (100 μM), or DUBTAc Compound […] (100 μM). After 24 hours, 4 μM CFTR, in the same buffer, was added to the OTUB1 solution, for final concentrations of 2 μM of each protein with either DMSO or 50 μM compound. The solution was then allowed to incubate for 30 minutes prior to analysis on the mass spectrometer. Mass spectra were recorded in positive ion mode with a mass range of 1000-8000 m/z. Each spectrum was then deconvoluted and relevant peaks were integrated to determine % ternary complex formed. All experiments were performed in triplicate.

Chain of CFTR-OTUB1 complex (Q96FW1 whole entry, stated change not applied, the tested form may be a part): as the sequence (Q96FW1 whole entry) above
Chain of CFTR-OTUB1 complex (P13569 with tags, fused parts or gaps DEL508-508 limits assumed): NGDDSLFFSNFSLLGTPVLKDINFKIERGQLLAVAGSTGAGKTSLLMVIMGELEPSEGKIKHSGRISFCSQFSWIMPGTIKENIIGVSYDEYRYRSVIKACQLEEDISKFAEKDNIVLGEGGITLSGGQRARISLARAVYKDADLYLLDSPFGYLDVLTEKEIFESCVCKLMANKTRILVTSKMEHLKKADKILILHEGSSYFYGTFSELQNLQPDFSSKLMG

## C=CC(=O)N1CCN(c2ccc(C)o2)C(=O)C1 [Compound 100]
OTUB1 [1]
  OTUB1 deubiquitination activity (monoubiquitin release from di-ubiquitin): does not inhibit
OTUB1 [2]
  inhibition of IA-rhodamine binding of OTUB1: dose-responsive inhibition
OTUB1 [3]
  cysteine of OTUB1 targeted (covalent modification site): selectively targets C23
  modification of the catalytic C91 of OTUB1: no detectable modification
CFTR-OTUB1 complex
  CFTR-OTUB1 complex formation: not

## C=CC(=O)N1CCN(c2ccc(CCC(=O)NCCCCCNC(=O)c3cccc(-c4nc(NC(=O)C5(c6ccc7c(c6)OC(F)(F)O7)CC5)ccc4C)c3)o2)C(=O)C1 [Compound 201, N-(5-(3-(5-(4-acryloyl-2-oxopiperazin-1-yl)furan-2-yl)propanamido)pentyl)-3-(6-(1-(2,2-difluorobenzo[d][1,3]dioxol-5-yl)cyclopropane-1-carboxamido)-3-methylpyridin-2-yl)benzamide]
CFTR-OTUB1 complex
  CFTR-OTUB1 complex formation: significant CFTR-OTUB1 complex formation was observed
